{"source": "patent US20180031580A1", "about": "“USE OF IGF-1 AS PROGNOSTIC FACTOR IN CALCIFICATION OF AORTIC VALVES” (THE ASAN FOUNDATION, priority 2015, published 2018)", "test_system": "aortic valve vascular smooth muscle tissue", "test": "ALP staining of aortic valve vascular smooth muscle tissue, osteocytogenesis level", "assay_type": "in vivo, mice", "settings": "wild-type or eNOS-deficient mice treated with IGF-1 alone; FIG. 2a", "experimental": "Wild-type mice or eNOS-deficient mice which are animal models with the aortic valve calcification were treated with insulin-like growth factor type 1 (IGF-1) alone or treated with dipeptidyl-peptidase 4 (DPP-4) and IGF-1 at the same time. Then, ALP staining was performed on the aortic valve vascular smooth muscle tissue, thereby comparing the […] level of tissue (FIG. 2a). Here, the aortic valve vascular smooth muscle tissue of the wild-type mice treated with nothing or the eNOS-deficient mice was used as a control group.\nFIG. 2a are an image and a graph showing verification of the effect of DPP-4 on an action of IGF-1 inhibiting osteocytogenesis in the aortic valve vascular smooth muscle tissue of the wild-type mice or the eNOS-deficient mice.", "data": [{"substance": "IGF-1: polypeptide having a size of about 7.5 kDa present in a plasma of mammals; SEQ ID NO: 1", "values": [{"measurement": "osteocytogenesis of aortic valve vascular smooth muscle tissue (ALP staining)", "value": "tended to be alleviated"}]}]}
